Measurements as given in US20090023714A1, “COMBINED PREPARATION OF A THIAZIDE DIURETIC AND A LOOP DIURETIC” (HEXAL AG, priority 2005, published 2009).
Entries after “also recorded” stand apart in the source; their conditions may differ.

What was measured:
healthy volunteers [1] = assay: Dose-response studies of natriuretic effect in healthy volunteers; assay type: in vivo, human; conditions: for range of linear dose-responsiveness of natriuretic effect / dose at which the maximum natriuretic effect is reached: FIG. 1; for dose at which the maximum natriuretic effect is reached: net Na+ excretion for the duration of action, oral; for duration of action (time until baseline excretion is reached again): oral single dose
Experimental: (§1) The ethically approved trial was performed on 12 healthy volunteers (28-48years in age, 6 males, 6 females), who had given their written informed consent to the study. Prior to administration of a drug, the participants underwent a clinical check-up. The participants were kept on a standard diet, receiving a defined fluid (1.5 l/day) and salt intake (6 g NaCl; 100 mmol Na^+/day) three days before and throughout the study.
In accordance with earlier studies (35), urine was collected before the treatment period, i.e., from 24 hrs to 12 hrs and from 12 hrs to 0 hrs prior to oral drug administration (8 a.m.). From that point of time, urine was collected following drug administration in 2 hour intervals until the 6th hour and then from the 6th to 9th hour, from the 9th to 12th hour and from the 12th to […]. An aliquot of the defined volume of the respective collection period was frozen until analyzed for Na^+, K^+, Cl^−, Ca^2+ Mg^2+ and creatinine using a “MODULAR” Analyzer (Roche Comp., Switzerland).
(§2) All data are expressed as mean values (±SEM). The diuretic-induced “net excretion” is defined as the difference between total excretion and control excretion (“baseline”) obtained for the respective period prior to treatment. The effect of diuretic monotherapy is compared with the combined treatment using ANOVA.

healthy volunteers [2] = assay: Diuretic effects on urinary excretion of Na+, K+, Mg2+ and Ca2+ in healthy volunteers (monotherapy and combinations); assay type: in vivo, human; conditions: for total K+ excretion, monotherapy: usual doses, 0-24 hrs and sub-periods, FIG. 2b; for Na+ excretion during the first 3 hrs, monotherapy: 10 mg TORA, 25 mg HCT, 50 mg TA
Experimental: as §1
From that point of time, urine was collected following drug administration in 2 hour intervals until the 6th hour and then from the 6th to 9th hour, from the 9th to 12th hour and from the 12th to […]. An aliquot of the defined volume of the respective collection period was frozen until analyzed for Na^+, K^+, Cl^−, Ca^2+ Mg^2+ and creatinine using a “MODULAR” Analyzer (Roche Comp., Switzerland).
as §2

Row | Mg2+ excretion, monotherapy (healthy volunteers [2]; loop diuretic versus thiazide, FIG. 3) | SMILES | range of linear dose-responsiveness of natriuretic effect (healthy volunteers [1]) | dose at which the maximum natriuretic effect is reached (healthy volunteers [1]) [mg] | total K+ excretion, monotherapy (healthy volunteers [2]) | duration of action (time until baseline excretion is reached again) (healthy volunteers [1]) [h] | Na+ excretion during the 6-12 hrs and 12-24 hrs periods (rebound) (healthy volunteers [2]; 10 mg TORA monotherapy, FIG. 2a) | Na+ excretion during the first 3 hrs, monotherapy (healthy volunteers [2]; FIG. 2a) | K+/Na+ excretion ratio 6-24 hrs, monotherapy (healthy volunteers [2]; after the duration of action, Na+ excretion below baseline, FIG. 2c) | Ca2+ excretion in relation to Na+ excretion, monotherapy (healthy volunteers [2]; loop diuretic versus thiazide, FIG. 2d) | cumulative Na+ excretion induced by 25 mg compared with 50 mg (healthy volunteers [1]; during 12 hrs (time until baseline excretion is reached again)) | K+ excretion correlated with Na+ excretion (K+/Na+ ratio), 0-12 hrs (healthy volunteers [2]; 0-12 hrs, HCT alone versus HCT with 5 mg TORA, p<0.01) | K+ excretion correlated with Na+ excretion (K+/Na+ ratio), 0-24 hrs (healthy volunteers [2]; 0-24 hrs, HCT alone versus HCT with 5 mg TORA, p<0.01) | K+/Na+ excretion ratio within the first three hours, monotherapy (healthy volunteers [2]; FIG. 2c)
1 | – | Nc1nc(N)c2nc(-c3ccccc3)c(N)nc2n1 [TA, triamterene] | narrow range of almost linear dose-responsiveness | 50 | less K^+ loss than HCT or TORA only for the 0-3 hrs period; also recorded: not superior to the loop diuretic | – | – | – | – | – | – | – | – | –
2 | less magnesiuretic than the thiazide | Cc1cccc(Nc2ccncc2S(=O)(=O)NC(=O)NC(C)C)c1 [TORA, torasemide] | broader range of linear dose-responsiveness | – | – | 6 | dropped below levels prior to drug administration | by far in the highest increase of Na excretion | highest only after the duration of action of the loop diuretic | higher for the loop diuretic than for the thiazide | – | – | – | –
3 | – | NS(=O)(=O)c1cc2c(cc1Cl)NCNS2(=O)=O [HCT, hydrochlorothiazide] | narrow range of almost linear dose-responsiveness | 25 | higher than that following administration of the loop diuretic | 12 | – | higher Na^+ excretion than TA only during the first 3 hrs | – | – | not significantly different | 0.40 | 0.43 | nearly triple of that of the loop diuretic
